Test results as given in patent US5631222A, “Endothelin-antagonizing peptide” (Kyowa Hakko Kogyo Co., Ltd., priority 1993, dated 1997).
Positions of bridges follow the written chain, without caps; N, C: chain ends. Non-standard residues stand in square brackets, D forms with d. Residues, ends and D or L forms follow the SMILES beside them. 2Thi = N[C@@H](Cc1cccs1)C(=O)O; Cha = N[C@@H](CC1CCCCC1)C(=O)O; Nva = CCC[C@H](N)C(=O)O

Target: T1, endothelin receptor (Bos taurus, UniProt P28088)
T1 construct: the suspension was used as a membrane fraction liquid; from tissue; host or cells: bovine cerebellum membrane fraction
T1 sequence (P28088 27-441): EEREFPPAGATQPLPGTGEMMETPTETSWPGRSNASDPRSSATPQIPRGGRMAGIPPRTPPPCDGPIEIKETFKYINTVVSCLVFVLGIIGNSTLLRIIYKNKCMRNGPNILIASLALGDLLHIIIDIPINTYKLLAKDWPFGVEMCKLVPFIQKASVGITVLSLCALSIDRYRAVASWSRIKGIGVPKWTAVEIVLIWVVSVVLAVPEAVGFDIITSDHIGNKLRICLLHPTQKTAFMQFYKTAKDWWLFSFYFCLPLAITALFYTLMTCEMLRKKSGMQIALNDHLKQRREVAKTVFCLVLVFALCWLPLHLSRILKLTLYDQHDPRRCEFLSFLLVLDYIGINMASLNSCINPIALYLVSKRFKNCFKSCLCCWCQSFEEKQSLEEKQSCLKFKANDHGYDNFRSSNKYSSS
Experiment: Endothelin receptor-antagonizing activity: inhibition of 125I-endothelin-1 binding to bovine cerebellum membrane fraction
Conditions: 125I-Endothelin-1, bovine cerebellum membrane fraction, 25° C. for 2 hours; read-out: IC50: Concentration causing 50% inhibition of endothelin1 binding
Protocol: Bovine cerebellum tissue was homogenized at 4° C. by using POLYTRON (type PT10/35, manufactured by Kinematic Gmbh Co.) in a buffer solution A (1 mM NaHCO3, 5 mM ethylenediaminetetraacetic acid, 5 μg/ml leupeptin, 5 μg/ml pepstatin A, 40 μM phenylmethylsulfonyl fluoride, pH 8.3).
The obtained suspension was centrifuged for 10 minutes at 8,000 G and 4° C., and the resulting supernatant was centrifuged for 60 minutes at 40,000 G and 4° C. to obtain pellets. The obtained pellets were suspended in a buffer solution A and again centrifuged for 60 minutes at 40,000 G and 4° C. The resulting solid substance was prepared as a suspension containing 2 mg/ml of protein, and the suspension was used as a membrane fraction liquid. […] These mixtures were incubated at 25° C. for 2 hours, and then filtered with a GF/B glass filter (produced by Whatman Co.). […] The inhibition ratio against endothelin receptor binding activity was calculated according to the following equation:
Inhibition ratio (%)=(C-A/C-B)×100
B: Radioactivity in the presence of unlabelled endothelin-1
C: Radioactivity in the absence of both of the compound shown in Table 2 and unlabelled endothelin-1

Row | Structure (SMILES) | IC50
1 | CC[C@H](C)[C@H](NC(=O)[C@H](CC(=O)O)NC(=O)[C@H](CC(C)C)NC(=O)[C@H](Cc1c[nH]cn1)NC(=O)[C@H](C)NC(=O)[C@H](Cc1ccccc1)NC(=O)[C@H](Cc1ccc(O)cc1)NC(=O)[C@@H](NC(=O)[C@H](Cc1c[nH]c2ccccc12)NC(=O)[C@@H]1CSSC[C@H](N)C(=O)N[C@@H](CC(N)=O)C(=O)N[C@@H](Cc2c[nH]c3ccccc23)C(=O)N[C@@H](Cc2c[nH]cn2)C(=O)NCC(=O)N[C@@H]([C@@H](C)O)C(=O)N[C@@H](C)C(=O)N2CCC[C@H]2C(=O)N1)C(C)C)C(=O)N[C@H](C(=O)N[C@@H](Cc1c[nH]c2ccccc12)C(=O)O)[C@@H](C)CC [Compound 33] (H-CNWHGTAPCWVYFAHLDIIW-OH; disulfide 1-9) | 0.16 nM
2 | CC[C@H](C)[C@H](NC(=O)[C@H](Cc1cccs1)NC(=O)[C@@H](NC(=O)[C@H](CC(C)C)NC(=O)[C@H](Cc1c[nH]cn1)NC(=O)[C@H](C)NC(=O)[C@H](Cc1ccccc1)NC(=O)[C@H](Cc1ccc(O)cc1)NC(=O)[C@@H](NC(=O)[C@H](Cc1c[nH]c2ccccc12)NC(=O)[C@@H]1CSSC[C@H](N)C(=O)N[C@@H](CC(=O)O)C(=O)N[C@@H](Cc2c[nH]c3ccccc23)C(=O)N[C@@H](CCCCN)C(=O)NCC(=O)N[C@@H]([C@@H](C)O)C(=O)N[C@@H](CO)C(=O)N2CCC[C@H]2C(=O)N1)C(C)C)[C@@H](C)O)C(=O)N[C@@H](Cc1c[nH]c2ccccc12)C(=O)O [Compound 35] (H-CDWKGTSPCWVYFAHLT[2Thi]IW-OH; disulfide 1-9) | 1.6 nM
3 | CC[C@H](C)[C@H](NC(=O)[C@H](CC(C)C)NC(=O)[C@@H](NC(=O)[C@H](CC(C)C)NC(=O)[C@H](Cc1c[nH]cn1)NC(=O)[C@H](C)NC(=O)[C@H](Cc1ccccc1)NC(=O)[C@H](Cc1ccc(O)cc1)NC(=O)[C@@H](NC(=O)[C@H](Cc1c[nH]c2ccccc12)NC(=O)[C@@H]1CSSC[C@H](N)C(=O)N[C@@H](CC(N)=O)C(=O)N[C@@H](Cc2c[nH]c3ccccc23)C(=O)N[C@@H](Cc2c[nH]cn2)C(=O)NCC(=O)N[C@@H]([C@@H](C)O)C(=O)N[C@@H](C)C(=O)N2CCC[C@H]2C(=O)N1)C(C)C)[C@@H](C)O)C(=O)N[C@@H](Cc1c[nH]c2ccccc12)C(=O)O [Compound 37] (H-CNWHGTAPCWVYFAHLTLIW-OH; disulfide 1-9) | 8.7 nM
4 | CC[C@H](C)[C@H](NC(=O)[C@H](CC1CCCCC1)NC(=O)[C@@H](NC(=O)[C@H](CC(C)C)NC(=O)[C@H](Cc1c[nH]cn1)NC(=O)[C@H](C)NC(=O)[C@H](Cc1ccccc1)NC(=O)[C@H](Cc1ccc(O)cc1)NC(=O)[C@@H](NC(=O)[C@H](Cc1c[nH]c2ccccc12)NC(=O)[C@@H]1CSSC[C@H](N)C(=O)N[C@@H](CC(N)=O)C(=O)N[C@@H](Cc2c[nH]c3ccccc23)C(=O)N[C@@H](Cc2c[nH]cn2)C(=O)NCC(=O)N[C@@H]([C@@H](C)O)C(=O)N[C@@H](C)C(=O)N2CCC[C@H]2C(=O)N1)C(C)C)[C@@H](C)O)C(=O)N[C@@H](Cc1c[nH]c2ccccc12)C(=O)O [Compound 39] (H-CNWHGTAPCWVYFAHLT[Cha]IW-OH; disulfide 1-9) | 280 nM
5 | CC[C@H](C)[C@H](NC(=O)[C@H](CC(C)C)NC(=O)[C@@H](NC(=O)[C@H](CC(C)C)NC(=O)[C@H](Cc1c[nH]cn1)NC(=O)[C@H](C)NC(=O)[C@H](Cc1ccccc1)NC(=O)[C@H](Cc1ccc(O)cc1)NC(=O)[C@@H](NC(=O)[C@H](Cc1c[nH]c2ccccc12)NC(=O)[C@@H]1CC(=O)NCC(=O)N[C@@H](CC(N)=O)C(=O)N[C@@H](Cc2c[nH]c3ccccc23)C(=O)N[C@@H](Cc2c[nH]cn2)C(=O)NCC(=O)N[C@@H]([C@@H](C)O)C(=O)N[C@@H](C)C(=O)N2CCC[C@H]2C(=O)N1)C(C)C)[C@@H](C)O)C(=O)N[C@@H](Cc1c[nH]c2ccccc12)C(=O)O [Compound 40] (GNWHGTAPDWVYFAHLTLIW-OH; lactam N-9) | 34 nM
6 | CC[C@H](C)[C@H](NC(=O)[C@H](Cc1cccs1)NC(=O)[C@@H](NC(=O)[C@H](CC(C)C)NC(=O)[C@H](Cc1c[nH]cn1)NC(=O)[C@H](C)NC(=O)[C@H](Cc1ccccc1)NC(=O)[C@H](Cc1ccc(O)cc1)NC(=O)[C@@H](NC(=O)[C@H](Cc1c[nH]c2ccccc12)NC(=O)[C@@H]1CC(=O)NCC(=O)N[C@@H](CC(N)=O)C(=O)N[C@@H](Cc2c[nH]c3ccccc23)C(=O)N[C@@H](Cc2c[nH]cn2)C(=O)NCC(=O)N[C@@H]([C@@H](C)O)C(=O)N[C@@H](C)C(=O)N2CCC[C@H]2C(=O)N1)C(C)C)[C@@H](C)O)C(=O)N[C@@H](Cc1c[nH]c2ccccc12)C(=O)O [Compound 41] (GNWHGTAPDWVYFAHLT[2Thi]IW-OH; lactam N-9) | 2.5 nM
7 | CC[C@H](C)[C@H](NC(=O)[C@H](Cc1cccs1)NC(=O)[C@@H](NC(=O)[C@H](CC(C)C)NC(=O)[C@H](Cc1c[nH]cn1)NC(=O)[C@H](C)NC(=O)[C@H](Cc1ccccc1)NC(=O)[C@H](Cc1ccc(O)cc1)NC(=O)[C@@H](NC(=O)[C@H](Cc1c[nH]c2ccccc12)NC(=O)[C@H](CC(=O)O)NC(=O)[C@@H]1CCCN1C(=O)[C@H](C)NC(=O)[C@@H](NC(=O)CNC(=O)[C@H](Cc1c[nH]cn1)NC(=O)[C@H](Cc1c[nH]c2ccccc12)NC(=O)[C@H](CC(N)=O)NC(=O)CN)[C@@H](C)O)C(C)C)[C@@H](C)O)C(=O)N[C@H](Cc1c[nH]c2ccccc12)C(=O)O [Compound 42, HGlyAsnTrpHisGlyThrAlaProAspTrpValTyrPheAlaHisLeuThrThiIleD-TrpOH] (H-GNWHGTAPDWVYFAHLT[2Thi]I[dW]-OH) | 210 nM
8 | CCC[C@H](NC(=O)[C@@H](Cc1c[nH]c2ccccc12)NC(=O)[C@H](C)NC(=O)[C@H](Cc1ccccc1)NC(=O)[C@H](Cc1ccc(O)cc1)NC(=O)[C@@H](NC(=O)[C@H](Cc1c[nH]c2ccccc12)NC(=O)[C@H](CC(=O)O)NC(=O)[C@@H]1CCCN1C(=O)[C@H](C)NC(=O)[C@@H](NC(=O)CNC(=O)[C@H](Cc1c[nH]cn1)NC(=O)[C@H](Cc1c[nH]c2ccccc12)NC(=O)[C@H](CC(N)=O)NC(=O)CN)[C@@H](C)O)C(C)C)C(=O)N[C@@H](CCC(=O)O)C(=O)N[C@H](C(=O)N[C@@H](C(=O)N[C@@H](Cc1c[nH]c2ccccc12)C(=O)O)[C@H](C)CC)[C@@H](C)CC [Compound 44, HGlyAsnTrpHisGlyThrAlaProAspTrpValTyrPheAlaD-TrpNvaGluIleD-IleTrpOH] (H-GNWHGTAPDWVYFA[dW][Nva]EI[dI]W-OH) | 290 nM
9 | CC[C@H](C)[C@H](NC(=O)[C@H](CCSC)NC(=O)[C@H](CO)NC(=O)[C@H](CC(C)C)NC(=O)[C@H](Cc1c[nH]cn1)NC(=O)[C@H](C)NC(=O)[C@@H](Cc1ccccc1)NC(=O)[C@H](Cc1ccc(O)cc1)NC(=O)[C@@H](NC(=O)[C@H](Cc1c[nH]c2ccccc12)NC(=O)[C@H](CC(=O)O)NC(=O)[C@@H]1CCCN1C(=O)[C@H](C)NC(=O)[C@@H](NC(=O)CNC(=O)[C@H](Cc1c[nH]cn1)NC(=O)[C@H](Cc1c[nH]c2ccccc12)NC(=O)[C@H](CC(N)=O)NC(=O)CN)[C@@H](C)O)C(C)C)C(=O)N[C@@H](Cc1c[nH]c2ccccc12)C(=O)O [Compound 45, HGlyAsnTrpHisGlyThrAlaProAspTrpValTyrD-PheAlaHisLeuSerMetIleTrpOH] (H-GNWHGTAPDWVY[dF]AHLSMIW-OH) | 3.3 nM
10 | CC[C@H](C)[C@H](NC(=O)[C@H](Cc1cccs1)NC(=O)[C@@H](NC(=O)[C@H](CC(C)C)NC(=O)[C@H](Cc1c[nH]cn1)NC(=O)[C@H](C)NC(=O)[C@H](Cc1ccccc1)NC(=O)[C@H](Cc1ccc(O)cc1)NC(=O)[C@@H]1CCCN1C(=O)[C@H](Cc1c[nH]c2ccccc12)NC(=O)[C@H](CC(=O)O)NC(=O)[C@@H]1CCCN1C(=O)[C@H](C)NC(=O)[C@@H](NC(=O)CNC(=O)[C@H](Cc1c[nH]cn1)NC(=O)[C@H](Cc1c[nH]c2ccccc12)NC(=O)[C@H](CC(N)=O)NC(=O)CN)[C@@H](C)O)[C@@H](C)O)C(=O)N[C@@H](Cc1c[nH]c2ccccc12)C(=O)O [Compound 48, HGlyAsnTrpHisGlyThrAlaProAspTrpProTyrPheAlaHisLeuThrThiIleTrpOH] (H-GNWHGTAPDWPYFAHLT[2Thi]IW-OH) | 5 nM
11 | CC[C@H](C)[C@@H]1NC(=O)[C@H](Cc2ccccc2)NC(=O)CNC(=O)C[C@@H](C(=O)N[C@@H](Cc2c[nH]c3ccccc23)C(=O)N[C@H](C(=O)N[C@@H](Cc2ccc(O)cc2)C(=O)N[C@@H](Cc2ccccc2)C(=O)N[C@@H](C)C(=O)N[C@@H](Cc2c[nH]cn2)C(=O)N[C@@H](CC(C)C)C(=O)N[C@@H](CC(=O)O)C(=O)N[C@H](C(=O)N[C@H](C(=O)N[C@@H](Cc2c[nH]c3ccccc23)C(=O)O)[C@@H](C)CC)[C@@H](C)CC)C(C)C)NC(=O)[C@H](CC(N)=O)NC(=O)CNC(=O)[C@H](Cc2c[nH]c3ccccc23)NC(=O)CNC1=O [Compound 51] (GFIGWGNDWVYFAHLDIIW-OH; lactam N-8) | 3.3 nM
